According to the supplement of paper PMC8967900:

Key:
Experiment in all cases: selective drug sensitivity score (sDSS, relative to normal bone marrow) (sDSS (score)); higher = more potent and effective on the cell line relative to normal bone marrow cells
Conditions in all cases: 72 h
380 = system: 380
697 = system: 697
ALL-PO = system: ALL-PO
CCRF-CEM = system: CCRF-CEM
COG-LL-355h = system: COG-LL-355h
COG-LL-394h = system: COG-LL-394h
COG-LL-402h = system: COG-LL-402h
HPB-ALL = system: HPB-ALL
KARPAS-45 = system: KARPAS-45
MOLT-14 = system: MOLT-14
MOLT-16 = system: MOLT-16
NALM-16 = system: NALM-16
P12-ICHIKAWA = system: P12-ICHIKAWA
P30-OHKUBO = system: P30-OHKUBO
RCH-ACV = system: RCH-ACV
RPMI-8402 = system: RPMI-8402
SEM cells = system: SEM cells
SUP-B15 = system: SUP-B15
TANOUE = system: TANOUE
TMD5 = system: TMD5
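Further: ALL cell lines in 384-well plates, five doses spanning 10,000-fold, each plate scaled between vehicle and 100 µmol/L benzalkonium chloride controls, sDSS an adapted area-under-curve metric.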

Compound | selective drug sensitivity score 380 | selective drug sensitivity score 697 | selective drug sensitivity score (ALL-PO) | selective drug sensitivity score (CCRF-CEM) | selective drug sensitivity score (COG-LL-355h) | selective drug sensitivity score (COG-LL-394h) | selective drug sensitivity score (COG-LL-402h) | selective drug sensitivity score (HPB-ALL) | selective drug sensitivity score (KARPAS-45) | selective drug sensitivity score (MOLT-14) | selective drug sensitivity score (MOLT-16) | selective drug sensitivity score (NALM-16) | selective drug sensitivity score (P12-ICHIKAWA) | selective drug sensitivity score (P30-OHKUBO) | selective drug sensitivity score (RCH-ACV) | selective drug sensitivity score (RPMI-8402) | selective drug sensitivity score (SEM cells) | selective drug sensitivity score (SUP-B15) | selective drug sensitivity score (TANOUE) | selective drug sensitivity score (TMD5)
Cc1ccc(C(=O)N(CCCN)[C@@H](c2oc3cc(Cl)ccc3c(=O)c2Cc2ccccc2)C(C)C)cc1 (top concentration 100 nM) | 1.46 | 1.36 | -0.24 | 2.76 | -2.64 | -2.24 | 3.06 | 13.8 | 7.16 | 3.76 | 7.46 | 5.76 | 1.76 | 4.06 | 1.96 | 2.86 | 5.66 | 4.26 | -3.64 | 11.9
C[C@@H](Oc1ccc2[nH]nc(/C=C/c3cnn(CCO)c3)c2c1)c1c(Cl)cncc1Cl (top concentration 1000 nM) | -1.34 | 1.96 | 4.96 | -2.74 | 0.36 | -0.54 | -2.14 | 1.46 | 0.56 | -0.94 | -2.04 | -1.44 | -2.64 | 6.06 | 10.6 | -3.14 | 6.26 | 6.76 | -7.04 | -0.74
CCn1c(C(=O)N(C2CC2)C2CC2)cc2c3c(ncn3C)c(Nc3cc(C)n(C)n3)nc21 (top concentration 10000 nM) | -4.36 | -3.76 | 8.14 | -3.96 | 1.14 | -4.36 | -4.36 | -3.16 | -3.06 | -4.36 | -4.36 | -4.36 | -4.36 | -3.66 | -3.06 | -4.16 | 0.94 | -4.36 | -4.36 | -4.36
CNc1nc(-c2ccc3c(N)n[nH]c3c2)cc(N2C[C@@H](C(=O)NC3CCCCC3)CC[C@H]2C)n1 (top concentration 10000 nM) | -0.14 | 9.06 | 8.86 | 1.36 | 6.66 | -0.14 | 6.36 | 1.86 | -0.14 | -0.14 | -0.14 | 3.86 | -0.14 | 7.86 | 18.6 | -0.14 | 3.26 | 9.96 | 0.16 | 2.16
COc1ccc(Cn2ccc3ccc(C(=O)NO)cc32)cc1 (top concentration 10000 nM) | 10.2 | 4.34 | 2.84 | 3.34 | 0.74 | 0.94 | 5.44 | 0.84 | 2.94 | 5.64 | 4.04 | 2.44 | 2.34 | 2.24 | 1.54 | 1.54 | 2.94 | 3.64 | 1.34 | -0.96
N#Cc1ccc(COC[C@H]2O[C@@H](n3c(NCc4ccc(Cl)c(Cl)c4)nc4c(N)ncnc43)[C@H](O)[C@@H]2O)cc1 (top concentration 10000 nM) | -0.98 | 4.72 | 4.82 | 7.62 | 2.22 | -0.08 | 2.02 | 4.32 | 7.82 | 9.22 | 9.72 | -0.88 | 7.22 | 1.62 | 8.62 | 7.92 | 5.22 | 5.72 | 1.42 | -1.38
NC[C@@](O)(c1ccc(Cl)cc1)c1ccc(-c2cn[nH]c2)cc1 (top concentration 10000 nM) | 13.9 | 9.78 | 3.98 | 3.88 | 3.28 | -1.22 | 5.78 | -0.72 | 2.78 | -1.22 | 0.38 | -1.22 | 3.58 | 3.68 | 7.58 | 3.28 | 6.58 | 6.78 | -1.22 | 4.98
O=c1[nH]c(C2CCCN2)nc2c1oc1ccc(Cl)cc12 (stereo not given) (top concentration 10000 nM) | 13.1 | 6.2 | -0.2 | 5.8 | 2.1 | 0.5 | -1.5 | -2.4 | 0.9 | 6.4 | -0.5 | -1.9 | 0.1 | 1.2 | 5.1 | 6.2 | -1.6 | 1.8 | -2.8 | -2.8
NCC(=O)Nc1ccc(-n2nc(C(F)(F)F)cc2-c2ccc3c(ccc4ccccc43)c2)cc1 (top concentration 25000 nM) | 9.6 | 10.8 | 7.7 | 7.9 | -0.2 | -0.2 | -0.2 | 7.6 | 6.9 | 11.2 | 19 | 5.4 | 16.7 | 7.6 | 17.3 | 13 | 8 | 7.5 | 4.7 | -0.2
Nc1ncnc2c1nc(Cl)n2[C@@H]1O[C@H](CO)[C@@H](O)[C@H]1O [8-chloro-adenosine] (top concentration 50000 nM) | -6.3 | 4.1 | 1.6 | 9.1 | -3.6 | 5.1 | 3.1 | -4.8 | 1.8 | 0.3 | 7.1 | -3.1 | -2.4 | 2.8 | 1.4 | -0.9 | 7.1 | 7.3 | -5.3 | -2.1
COc1ccc(S(=O)(=O)Nc2cccnc2Nc2ccc(O)cc2)cc1 [ABT-751] (top concentration 10000 nM) | 8.72 | 12.8 | 13.3 | 12.2 | 1.02 | 3.72 | 8.92 | 13.2 | 12.2 | 11.9 | 12.6 | 11.5 | 10.4 | 11.6 | 11.7 | 11.9 | 14.7 | 10.8 | -3.48 | 7.32
CC1CCC(n2c3cnccc3c3cnc(Nc4ccc5c(n4)CCN(C(=O)CO)C5)nc32)CC1 (stereo not given) [AMG-925] (top concentration 1000 nM) | 2.44 | 11.4 | 11.4 | 3.14 | 2.34 | -0.66 | 6.14 | 5.84 | 1.84 | 6.14 | 10.5 | 6.34 | 3.84 | 8.14 | 14.7 | 5.74 | 10 | 11.7 | 1.94 | -0.66
O=C(NC1CCNCC1)c1n[nH]cc1NC(=O)c1c(Cl)cccc1Cl [AT7519] (top concentration 10000 nM) | -4.86 | -2.46 | -14.4 | -3.46 | 2.74 | -1.06 | -3.66 | -10.8 | -4.16 | -3.86 | -3.06 | -8.16 | -8.66 | -2.96 | -3.16 | -7.46 | -4.76 | -4.56 | -17.8 | -4.16
Cc1cc2c(C(C)C)c(O)c(O)c(C=O)c2c(O)c1-c1c(C)cc2c(C(C)C)c(O)c(O)c(C=O)c2c1O [AT-101] (top concentration 100000 nM) | -0.22 | 3.08 | 8.98 | 4.88 | 4.98 | 3.78 | 4.18 | 10.9 | 5.98 | 4.98 | 5.88 | 0.98 | 2.78 | 5.18 | 0.98 | 1.88 | 3.78 | 5.78 | 0.98 | 0.18
N[C@@H]1CCCN(c2c(/C=C3\SC(=O)NC3=O)cccc2-c2ccccc2)C1 [AZD1208] (top concentration 10000 nM) | 14.8 | 1.2 | 8.5 | -4.4 | 12.4 | 1 | -4.4 | -4.4 | -3.3 | 1.5 | -4.4 | -3.2 | -4 | -1.1 | 0.6 | -3.1 | -4.4 | -4.4 | -4.1 | 3.1
Cc1ncc(-c2ccnc(Nc3ccc(S(C)(=O)=O)cc3)n2)n1C(C)C [AZD-5438] (top concentration 10000 nM) | -7.56 | 0.94 | -6.06 | 3.54 | 3.94 | -5.86 | -0.46 | -5.06 | 2.64 | 3.64 | 5.44 | -6.16 | -0.36 | 0.84 | 2.44 | -0.76 | 2.34 | 9.74 | -9.96 | -5.96
CCN1CCN(Cc2ccc(Nc3ncc(F)c(-c4cc(F)c5nc(C)n(C(C)C)c5c4)n3)nc2)CC1 [Abemaciclib] (top concentration 2500 nM) | -6.86 | 8.44 | -3.36 | -2.36 | 6.44 | -3.26 | 1.74 | -2.46 | -4.66 | 1.44 | 8.24 | -6.46 | -4.06 | 5.94 | 8.74 | 0.74 | -1.86 | 6.74 | -9.66 | -9.66
Cn1ncc(Cl)c1-c1cc(C(=O)N[C@H](CN)Cc2cccc(F)c2)sc1Cl [Afuresertib] (top concentration 1000 nM) | 2.46 | 0.76 | 4.26 | 5.36 | 2.76 | -0.94 | 4.56 | 2.86 | 3.06 | 0.16 | 10.4 | 1.46 | -0.44 | 5.56 | 5.36 | 1.16 | 0.36 | 5.66 | -1.94 | -2.34
O=C(Nc1cc(Oc2cc(F)c(NC(=O)C3(C(=O)Nc4ccc(F)cc4)CC3)cc2F)ccn1)C1CC1 [Altiratinib] (top concentration 10000 nM) | -0.86 | 4.24 | 8.94 | -0.16 | -0.36 | 1.84 | -2.16 | 3.54 | 2.74 | -0.36 | 0.04 | -2.56 | 0.34 | 1.84 | 7.24 | 1.64 | 13.7 | 6.64 | -2.56 | 3.24
